Experimental data: article PMC3871595, “Structure Based Identification and Characterization of Flavonoids That Disrupt Human Papillomavirus-16 E6 Function” (PLoS ONE, 2013)
Entries after “also recorded” stand apart in the source; their conditions may differ. Like-named read-outs stand apart in the source and are kept apart here.

Legend:
p21^Cip1/Waf1 mRNA = assay: p21 mRNA qRT-PCR; assay type: cell-based, human; settings: relative to DMSO, normalized to GAPDH
Method: It is possible that the increased p53 and p21 levels resulted from non-specific inhibition of protein degradation. However, if the increase in p21 was dependent upon p53 promoter activation, it should be possible to detect changes in the amounts of p21 mRNA detected in treated cells. To confirm that the increase in p21 protein level resulted from p53 activation, the levels of p21 mRNA were analyzed using qRT-PCR.
Figure 6 Induction of p21^Cip1/Waf1 mRNA. Compounds were tested for the ability to induce p21^Cip1/Waf1 expression at the mRNA level. Relative increases in transcripts were determined by qRT-PCR. […] Fold induction was calculated in relation to treatment with DMSO and normalized to GAPDH. Data were analyzed using one-way ANOVA with post-hoc analysis (Dunnetts; S.E.M.; n=2). Statistical significance (p<0.01) is indicated as * in comparison to Caski control (DMSO), # E6/E7 HFK control (DMSO), § HFK control (DMSO), and ◙ for RPE-1 control (DMSO).
20,000 cells per cm^2 were plated in 6-well dishes. Cells were incubated for 24 hours at which time fresh media and compound were added. […] Protein quantification was performed with the Fujifilm LAS-4000 Multifunctional Imaging System. The signal intensity was measured for each band on an immunoblot, normalized to the loading control, and the fold increase was determined in relation to the appropriate DMSO treated control. […]

[1] = solubility in aqueous SPR buffers; assay type: physicochemical; settings: for aqueous solubility (in words): simple aqueous solution
[2] = tested on: HPV-16 E6 mediated p53 degradation; assay: in vitro HPV-16 E6 mediated p53 degradation assay; assay type: biochemical
Method: In vitro expressed p53 was incubated in rabbit reticulocyte lysate in the presence or absence of in vitro expressed HPV16 E6. p53 levels were reduced in reaction containing E6 proteins (Figure 8 ).
Control reactions (no DNA, p53 alone) were incubated with 1 µL wheat germ extract and 2% DMSO in reaction buffer. In vitro translated p53 and rabbit reticulocyte lysate (RRL, Promega) were added to all reactions except the no DNA control reaction to which wheat germ extract was added instead of p53. Reactions were incubated for 3 hrs at 30°C and stopped by addition of 6X reducing SDS sample buffer and heating at 95°C for 5 min. Each reaction was loaded onto a 10% SDS-PAGE gel and transferred onto PVDF (0.45 µm). p53 and 16E6 were visualized using monoclonal p53 (Pab1801, 1:1000), monoclonal 16E6 (813, Arbor Vita Corporation, 1:4000) antibody and anti-mouse HRP-labeled secondary antibody (1:2000, Sigma-Aldrich).

[3] = molecular target: T1, interaction between HPV-16 E6 and E6AP (Human papillomavirus type 16, UniProt P03126); assay: biochemical; assay type: binding; settings: for Emax: read-out: Maximal Inhibition
T1 construct: made in house; host or cells: E. coli BL21
T1 sequence (P03126 whole entry): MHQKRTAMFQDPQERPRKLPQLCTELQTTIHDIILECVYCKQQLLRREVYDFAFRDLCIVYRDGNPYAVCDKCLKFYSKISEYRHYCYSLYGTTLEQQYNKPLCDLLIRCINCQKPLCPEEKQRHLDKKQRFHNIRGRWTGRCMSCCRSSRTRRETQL
Method: To characterize potential E6 inhibitors, a robust in vitro assay was developed to measure the interaction between HPV-16 E6 and E6AP. […] The core 70 amino acids of the E6 binding region of E6AP (residues 371-440) was fused to bacterial alkaline phosphatase (BAP) in the MY101 vector [40]. […] Binding efficiency was determined from the intensity of BAP activated chemiluminescence remaining in each well.
Kinetic analysis was performed to characterize the protein-protein interaction inherent in this assay.
The collection of 72 available structural-lead compounds was tested in the filter-plate based in vitro E6-E6AP binding assay. […] Compounds that disrupted the Flag-BAP interaction with the same potency as the HPV-16 E6 and E6AP interaction were classified as non-specific and eliminated from further analysis. […]
Pre-Block - 96-well filter plates were prepared (0.2 µm BioTrace NT, Pall). 100µL of blocking buffer (100 mM Tris pH 8.0, 100 mM NaCl, 0.1% milk) was added per well. Plates were blocked for 1 hr at RT on an orbital shaker. Buffer was removed by vacuum filtration using a vacuum manifold. GST-E6 Bead addition – GST-E6 beads were prepared at 5µg/mL in GST-E6 bead buffer (100 mM Tris pH 8.0, 100 mM NaCl, 0.1% milk, 2.5 mM DTT). 100µL of GST-E6 bead mix was added per well and incubated for 1 hr at 4°C. Buffer was removed by vacuum filtration. […] 48 µL of each reagent was added per well. For drug assay, 2µL of compound was added to each well and mixed thoroughly. […] Plates were incubated for 1-3 hours at RT on an orbital shaker. Buffer was removed by vacuum filtration. Plates were washed on the vacuum manifold, first with 200 µL buffer (100 mM Tris pH 8.0, 100 mM NaCl, 1 mM DTT), and twice more with 100µL lysis buffer without DTT. Plates were cleared and dried with on the vacuum manifold. Assay – Immunostar assay reagent was prepared and equilibrated to RT prior to addition. 60 µL of Immunostar-AP assay reagent was added, the BAP activity was allowed to develop for 10 minutes and the plates were read on a Wallace Luminometer. BAP activity was measured as relative light units (RLU) on a luminometer using the Immunostar-AP substrate (BioRad).

[4] = tested on: Caski, HeLa, RPE-1, C33a and HaCat cells; assay: cell number and morphology (bright field microscopy); assay type: cell-based, human; settings: 72 hours
[5] = 100 µM compound pre-incubated with E6
[6] = full 7-point dose response, 0.5 µM to 333 µM, quadruplicate

COc1cccc(-c2cc(=O)c3cc(-c4nnn[nH]4)ccc3o2)c1 [CAF-24]
p21 mRNA level (p21^Cip1/Waf1 mRNA): increase in p21 mRNA
aqueous solubility (in words) [1]: poor solubility; also recorded: limited aqueous solubility
effect on E6 mediated p53 degradation ([2]; 10 µM compound pre-incubated with E6): stabilized p53
effect on E6 mediated p53 degradation [2, 5]: stabilized p53
IC50 [3]: 2.8 µM
IC50 [3, 6]: low micromolar IC50 values
Emax [3]: 95%
number of cells per well [4]: decreased Caski and HeLa cell numbers
cell morphology ([4]; luteolin @ 50µM): no change in cell morphology

O=c1cc(-c2ccc(O)c(O)c2)oc2cc(O)cc(O)c12 [luteolin, reference compound]
p21 mRNA level (p21^Cip1/Waf1 mRNA): increase in p21 mRNA
solubility ([1]; aqueous SPR buffers, read-out: concentration soluble in the appropriate buffers): < 20 µM
aqueous solubility (in words) [1]: poor solubility
effect on E6 mediated p53 degradation [2, 5]: decrease in p53 was not observed
IC50 [3]: 4.3 µM
inhibition of the interaction between E6 and E6AP ([3]; full 7-point binding assay, maximum): up to 100%
IC50 [3, 6]: low micromolar IC50 values
Emax [3]: 99%
number of cells per well [4]: dramatic decrease in the number of cells per well
